These results are taken from US8846695B2, “Treatment for diabetes in patients with inadequate glycemic control despite metformin therapy comprising a DPP-IV inhibitor” (Boehringer Ingelheim International GmbH, priority 2009, dated 2014).

Data set [1] in a line: 12-week randomized double-blind add-on to metformin study: HbA1c and FPG. Also on record: placebo corrected mean reduction in HbA1c: dose or concentration left out as unconfirmed.
Procedure: Effects were compared to add-on of placebo (PBO) or of open label glimepiride (GLIM; 1 to 3 mg qd) in a 12-week randomized, double-blind study.
The primary endpoint was change from baseline in HbA1c, adjusted for prior antidiabetic medication.
Data set [2] can be described thus: Adverse events and hypoglycaemia in the 12-week add-on to metformin study. The data set is classed as in vivo, human. The settings on record: 1, 5 or 10 mg qd with metformin, 12 weeks. An excerpt: In total, 106 patients (43.1%) experienced adverse events (AEs) with similar incidences across all treatments. Most frequently reported episodes were nasopharyngitis (7.5%), diarrhoea (3.3%), and nausea (3.0%). […] Ten patients (3.7%) experienced serious AEs but none of these events were considered drug-related.
The addition of BI 1356 to MET in patients with T2DM inadequately controlled on MET alone achieved clinically relevant and statistically significant reductions in HbA1c.

The nature of data set [3]: Thorough QT study, single dose, healthy female and male subjects (QTcI). The settings on record: therapeutic (5 mg) and supratherapeutic (100 mg). It is filed as in vivo, human. As for the experimental part:
A thorough QT study of BI 1356, a potent and selective dipeptidyl peptidase-4 inhibitor, was performed in healthy female and male subjects, using 5 mg (therapeutic dose) and 100 mg. The study was a randomised, single-dose, placebo-controlled, double-blind, four-way crossover study with open-label moxifloxacin (400 mg) as positive control. Triplicate 12-lead electrocardiograms (ECGs) of 10 seconds' duration were recorded for all subjects pre-dose and at various time points over a 24-h period after each treatment. The primary parameter was the subject-specific heart rate corrected QT interval (QTcI).

For data set [4] the following is noted: human, in vivo.
[5] abbreviates: 5 mg daily, 12 weeks, add-on to metformin.

SMILES strings stand for the structures.

In the case of `CC#CCn1c(N2CCC[C@@H](N)C2)nc2c1c(=O)n(Cc1nc(C)c3ccccc3n1)c(=O)n2C` [BI 1356], in data set [1] (setting [5]), the “percentage of patients achieving HbA1c lowering of ≧0.5% from baseline” value is 53.2%, the “percentage of patients achieving HbA1c lowering of ≧1.0% from baseline” value is given as 27.4% and the “percentage of patients achieving a HbA1c value” came to 14.5%. Further, the “time at which maximum glucose-lowering effects are reached” value in data set [1] (1, 5 and 10 mg once daily added to metformin, plateau thereafter) was found to be 8 weeks. Besides, the drug-related hypoglycaemia entry in data set [2] is “no case of hypoglycaemia was reported”. In addition, the “prolongation of the QT interval” value in data set [3] is “did not prolong the QT interval”. The “form and path of excretion” value in data set [4] is on record as “primarily excreted unchanged via the bile”.
With `CCC1=C(C)CN(C(=O)NCCc2ccc(S(=O)(=O)NC(=O)N[C@H]3CC[C@H](C)CC3)cc2)C1=O` [GLIM, glimepiride, reference compound], in data set [1] (Week 12, add-on to metformin, n=64), the “placebo corrected mean reduction in HbA1c” value was −0.90%.
